Experimental data as given in BindingDB's records for doi:10.1021/acsmedchemlett.1c00211 (Biogen, 2021).

Key:
[1] = molecular target: Autotaxin (ENPP2) (Rattus norvegicus) (UniProt Q64610); experiment: Inhibition of LPA in rat plasma after 18 hrs by LC-MS/MS analysis
[2] = molecular target: Autotaxin (ENPP2) (Homo sapiens) (UniProt Q13822); experiment: Inhibition of LPA in human plasma after 18 hrs by LC-MS/MS analysis

Work on `C[C@@H](c1ccc2ccc(O[C@H]3CC[C@@H](C(F)(F)F)CC3)c(C(F)(F)F)c2c1)N1C2CCC1CC(C(=O)O)C2` (some centres not stated) yielded an IC50 [1] of 47 nM and an IC50 [2] of 53 nM.
